From patent publication US9096492B2, “Hydrated N-fullerene amino acids, method for producing the latter, and pharmaceutical compositions on the basis thereof” (priority 2011, dated 2015)
Where two headings read alike, the source gives them in different places.

What was measured:
[1] = rat, in vivo
[2] = test system: type 1 human immunodeficiency virus; assay: Antiviral activity on HIV-1 infected human cell model (cell staining, CPE, syncytium formation); conditions: for CPE/syncytia (+): number of pluses of the four-plus system; for Cell survival rate, % / Number of cells × 10^3/mL: HIV-1 infected cells
[3] = rat, in vivo; remark: listed apart in the source
[4] = rat, in vivo; remark: listed apart in the source
[5] = test system: A/Aichi/2/69 (H3N2) influenza virus; assay: Induced influenza pneumonia in mice
[6] = intramuscularly 50 mg/kg/day, observation day 16

N-fullerene tris(δ-aminocaproic acid) hydrate [Agent 1]
Glucose: number of animals with values going beyond the limits ([1]; 3 mg/kg): 0 | Leukocytes: number of animals with values going beyond the limits ([1]; 3 mg/kg): 3 | Protein: number of animals with values going beyond the limits ([1]; 9 mg/kg): 3 | Bilirubin: number of animals with values going beyond the limits ([1]; 20 mg/kg): 0 | Erythrocytes: number of animals with values going beyond the limits ([1]; 20 mg/kg): 5 | Glucose: number of animals with values going beyond the limits ([1]; 20 mg/kg): 0 | Nitrites: number of animals with values going beyond the limits ([1]; 20 mg/kg): 1 | CPE/syncytia (+) ([2]; 0.5 mcg/mL): 4.0 + | CPE/syncytia (+) ([2]; 1.0 mcg/mL): 2.0 + | CPE/syncytia (+) ([2]; 5.0 mcg/mL): 0 + | CPE/syncytia (+) ([2]; 10 mcg/mL): 0 + | Cell survival rate, % ([2]; 0.5 mcg/mL): 27% | Number of cells × 10^3/mL ([2]; 0.5 mcg/mL): 133.2 10^3/mL | Cell survival rate, % ([2]; 1.0 mcg/mL): 75% | Number of cells × 10^3/mL ([2]; 1.0 mcg/mL): 320.4 10^3/mL | Cell survival rate, % ([2]; 5.0 mcg/mL): 92% | Number of cells × 10^3/mL ([2]; 5.0 mcg/mL): 480.0 10^3/mL | Cell survival rate, % ([2]; 10 mcg/mL): 95% | Number of cells × 10^3/mL ([2]; 10 mcg/mL): 579.3 10^3/mL | EC50 (50% effective concentration) ([2]; HIV-1 infected human cells): 5.0 mg/L | Weight coefficients of viscera, Spleen [3]: 5.2 ± 0.7 g/kg body weight | Weight coefficients of viscera, heart [3]: 4.1 ± 0.4 g/kg body weight | Weight coefficients of viscera, kidneys [3]: 6.5 ± 0.4 g/kg body weight | Weight coefficients of viscera, liver [3]: 32.2 ± 1.8 g/kg body weight | Weight coefficients of viscera, lungs [3]: 7.1 ± 0.5 g/kg body weight | Weight coefficients of viscera, thymus [3]: 1.2 ± 0.4 g/kg body weight | weight coefficients of organs versus control [3]: no significant difference was found between experimental and control animals | weight coefficients of viscera versus control [3]: no distinctions between the rats of the experimental groups and the control group | Weight coefficients of viscera, Spleen ([3]; 3 mg/kg): 4.7 ± 0.5 g/kg body weight | Weight coefficients of viscera, heart ([3]; 3 mg/kg): 3.5 ± 0.7 g/kg body weight | Weight coefficients of viscera, kidneys ([3]; 3 mg/kg): 7.2 ± 0.5 g/kg body weight | Weight coefficients of viscera, heart ([3]; 9 mg/kg): 3.8 ± 0.6 g/kg body weight | Animal body weight, g (M ± SD) (females, 5 mg/kg single i.m., day 0): 19.1 ± 2. g | Animal body weight, g (M ± SD) (females, 5 mg/kg single i.m., day 7): 20.6 ± 2 g | Animal body weight, g (M ± SD) (females, 5 mg/kg single i.m., day 14): 22.8 ± 2. g | Animal body weight, g (M ± SD) (females, 50 mg/kg single i.m., day 0): 18.6 ± 1. g | Animal body weight, g (M ± SD) (females, 50 mg/kg single i.m., day 7): 19.9 g | Animal body weight, g (M ± SD) (females, 50 mg/kg single i.m., day 14): 21.9 ± 1. g | Animal body weight, g (M ± SD) (females, 500 mg/kg single i.m., day 0): 18.9 ± 1. g | Animal body weight, g (M ± SD) (females, 500 mg/kg single i.m., day 7): 20.7 ± 0 g | Animal body weight, g (M ± SD) (females, 500 mg/kg single i.m., day 14): 22.8 ± 1. g | Animal body weight, g (M ± SD) (males, 5 mg/kg single i.m., day 0): 23.0 ± 2.9 g | Animal body weight, g (M ± SD) (males, 5 mg/kg single i.m., day 7): 24.1 ± 2 g | Animal body weight, g (M ± SD) (males, 5 mg/kg single i.m., day 14): 25.4 ± 2. g | Animal body weight, g (M ± SD) (males, 50 mg/kg single i.m., day 0): 22.4 ± 2.1 g | Animal body weight, g (M ± SD) (males, 50 mg/kg single i.m., day 7): 23.7 ± 2 g | Animal body weight, g (M ± SD) (males, 50 mg/kg single i.m., day 14): 25.4 ± 2. g | Animal body weight, g (M ± SD) (males, 500 mg/kg single i.m., day 0): 22.6 ± 2.2 g | Animal body weight, g (M ± SD) (males, 500 mg/kg single i.m., day 7): 24.2 ± 1 g | Animal body weight, g (M ± SD) (males, 500 mg/kg single i.m., day 14): 26.2 ± 1. g | local irritant effect (mice and rats, after a single intramuscular injection): does not cause a local irritant effect | death during the 14-day observation period (mice, 5, 50 and 500 mg/kg single i.m.): No death occurred | LD50 (mice, single intramuscular administration, exceeds the maximal tested dose): > 500 mg/kg | induction of microscopic changes in organs [4]: the identified changes were not induced by the studied substance | Animals with changes, Number: Liver, Plethora of sinusoidal capillaries ([4]; 20 mg/kg): 5 | Animals with changes, Number: Lung, Thickening of the interalveolar septa (total) ([4]; 20 mg/kg): 1 | Percent body weight change ([5]; intramuscularly 50 mg/kg/day, day 1 post infection): +9% | Percent body weight change ([5]; intramuscularly 50 mg/kg/day, day 2 post infection): +14% | Percent body weight change ([5]; intramuscularly 50 mg/kg/day, day 3 post infection): +21% | Percent body weight change ([5]; intramuscularly 50 mg/kg/day, day 4 post infection): +26% | Percent body weight change ([5]; intramuscularly 50 mg/kg/day, day 5 post infection): +30% | Percent body weight change ([5]; intramuscularly 50 mg/kg/day, day 7 post infection): +27% | Percent body weight change ([5]; intramuscularly 50 mg/kg/day, day 9 post infection): +38% | Percent body weight change ([5]; intramuscularly 50 mg/kg/day, day 11 post infection): +64% | Percent body weight change ([5]; intramuscularly 50 mg/kg/day, day 13 post infection): +74% | Average lifetime (days) [5, 6]: 12.4 (1-7 d., 1-9 d., 2-11 d) days | Death rate (%) [5, 6]: 40% | Percent death protection (%) [5, 6]: 50% | Survival (survivors/total) [5, 6]: 6/10 | Percent body weight change ([5]; intramuscularly 100 mg/kg/day, day 1 post infection): +13% | Percent body weight change ([5]; intramuscularly 100 mg/kg/day, day 2 post infection): +17% | Percent body weight change ([5]; intramuscularly 100 mg/kg/day, day 3 post infection): +23% | Percent body weight change ([5]; intramuscularly 100 mg/kg/day, day 4 post infection): +28% | Percent body weight change ([5]; intramuscularly 100 mg/kg/day, day 5 post infection): +31% | Percent body weight change ([5]; intramuscularly 100 mg/kg/day, day 7 post infection): +39% | Percent body weight change ([5]; intramuscularly 100 mg/kg/day, day 9 post infection): +65% | Percent body weight change ([5]; intramuscularly 100 mg/kg/day, day 11 post infection): +7%
